Molecules are shown by their SMILES.

For this assay, the system named is HBsAg. The experiment in a line: HBsAg assay (CLIA of secreted HBsAg in HepG2.2.15 culture supernatant). The format is cell-based, HBV. The settings on record: Hepatitis B virus. The protocol: HepG2.2.15 cells (Acs et al. Proc Natl Acad Sci USA, 84, (1987), 4641-4), a constitutively HBV-expressing cell line were cultured in DMEM+Glutamax-I medium (Invitrogen, Carlsbad, Calif., USA), supplemented with 10% fetal bovine serum (Invitrogen) and G418 (Invitrogen) at a final concentration of 200 mg/L and maintained in 5% CO2 at 37° C.
HepG2.2.15 cells were seeded in duplicate into white, 96-well plates at 1.5×10^4 cells/well. The cells were treated with a three-fold serial dilution series of the compounds in DMSO. The final DMSO concentration in all wells was 1% and DMSO was used as no drug control.
The HBsAg chemiluminescence immunoassay (CLIA) kit (Autobio Diagnostics Co., Zhengzhou, China, Catalog number: CL0310-2) was used to measure the levels of secreted HBV antigens semi-quantitatively. For the detection 50 μL/well culture supernatant was used and HBsAg was quantified using HBsAg chemiluminescence immunoassay (CLIA) kit (Autobio Diagnostics Co., Zhengzhou, China, Catalog number: CL0310-2), 50 μL of the supernatant was transferred to the CLIA assay plate and 50 μL of enzyme conjugate reagent was added into each well. The plates were sealed and gently agitated for 1 hour at room temperature. The supernatant-enzyme-mixture was discarded and wells were washed 6 times with 300 μL of PBS. The residual liquid was removed by plating the CLIA plate right side down on absorbent tissue paper. 25 μL of substrates A and B were added to each well. Luminance was measured using a luminometer (Mithras LB 940 Multimode Microplate Reader) after 10 minutes incubation. Dose-response curves were generated and the IC50 value was extrapolated by using the E-WorkBook Suite (ID Business Solutions Ltd., Guildford, UK). The IC50 was defined as the compound concentration at which HBsAg secretion was reduced by 50% compared to the no drug control.
The compounds according to formula I were tested for their capacity to inhibit HBsAg as described herein.
As a reminder, the IC50 is the concentration that gives 50% inhibition. A lower IC50 goes with greater potency in that assay. On to `COC1CCN(c2cc(F)nc(N3CCc4nc(-c5cscn5)ncc4C3C)c2)C1` (stereo not shown) [Example 24, 4-[6-[6-fluoro-4-(3-methoxypyrrolidin-1-yl)-2-pyridyl]-5-methyl-7,8-dihydro-5H-pyrido[4,3-d]pyrimidin-2-yl]thiazole], for which the IC50 is 23 nM.
With `CC1c2cnc(-c3cscn3)nc2CCN1c1cc(F)cc(N2CCN(S(C)(=O)=O)CC2)n1` (stereo not shown) [Example 22, 4-[6-[4-fluoro-6-(4-methylsulfonylpiperazin-1-yl)-2-pyridyl]-5-methyl-7,8-dihydro-5H-pyrido[4,3-d]pyrimidin-2-yl]thiazole] the figure was 66 nM; with `CC1c2cnc(-c3cscn3)nc2CCN1c1cc(F)nc(N2CCNC(=O)C2)c1` (stereo not shown) [Example 28, 4-[6-fluoro-4-(5-methyl-2-thiazol-4-yl-7,8-dihydro-5H-pyrido[4,3-d]pyrimidin-6-yl)-2-pyridyl]piperazin-2-one], 42 nM; with `CC1c2cnc(-c3cscn3)nc2CCN1c1cc(F)cc(OCC2CC2)n1` (stereo not shown) [Example 33, 4-[6-[6-(cyclopropylmethoxy)-4-fluoro-2-pyridyl]-5-methyl-7,8-dihydro-5H-pyrido[4,3-d]pyrimidin-2-yl]thiazole], 212 nM.
With `COc1cc(F)nc(N2CCc3nc(-c4ncsc4C)ncc3C2C)c1` (stereo not shown) [Example 42, 4-[6-(6-Fluoro-4-methoxy-2-pyridyl)-5-methyl-7,8-dihydro-5H-pyrido[4,3-d]pyrimidin-2-yl]-5-methyl-thiazole] the figure was 282 nM; with `COc1cc(F)nc(N2CCc3nc(-n4ccnn4)ncc3C2C)c1` (stereo not shown) [Example 2, 6-(6-Fluoro-4-methoxy-2-pyridyl)-5-methyl-2-(triazol-1-yl)-7,8-dihydro-5H-pyrido[4,3-d]pyrimidine], 22900 nM; with `COc1cc(F)nc(N2CCc3nc(-c4cn(Cc5ccccc5)cn4)ncc3C2C)c1` (stereo not shown) [Example 10, 2-(1-Benzylimidazol-4-yl)-6-(6-fluoro-4-methoxy-2-pyridyl)-5-methyl-7,8-dihydro-5H-pyrido[4,3-d]pyrimidine], 421 nM.
The molecule `CC1c2cnc(-c3cscn3)nc2CCN1c1cc(F)cc(N2CCCC2)n1` (stereo not shown) [Example 19, 4-[6-(4-fluoro-6-pyrrolidin-1-yl-2-pyridyl)-5-methyl-7,8-dihydro-5H-pyrido[4,3-d]pyrimidin-2-yl]thiazole] showed an IC50 of 175 nM.
`CC1c2cnc(-c3cscn3)nc2CCN1c1cc(F)cc(OCC2CCOC2)n1` (stereo not shown) [Example 39, 4-[6-[4-fluoro-6-(tetrahydrofuran-3-ylmethoxy)-2-pyridyl]-5-methyl-7,8-dihydro-5H-pyrido[4,3-d]pyrimidin-2-yl]thiazole]: the half-inhibitory concentration (IC50) is 139 nM.
With `CC1c2cnc(-c3cscn3)nc2CCN1c1cc(N2CCCC2)cc(F)n1` (stereo not shown) [Example 18, 4-[6-(6-fluoro-4-pyrrolidin-1-yl-2-pyridyl)-5-methyl-7,8-dihydro-5H-pyrido[4,3-d]pyrimidin-2-yl]thiazole] the figure was 16 nM.
`CC1c2cnc(-c3cscn3)nc2CCN1c1cc(OCC2CC2)cc(F)n1` (stereo not shown) [Example 32, 4-[6-[4-(cyclopropylmethoxy)-6-fluoro-2-pyridyl]-5-methyl-7,8-dihydro-5H-pyrido[4,3-d]pyrimidin-2-yl]thiazole] registered an IC50 of 39 nM.
`COc1cc(F)nc(N2CCc3nc(-c4cc[nH]n4)ncc3C2C)c1` (stereo not shown) [Example 27, 6-(6-Fluoro-4-methoxy-2-pyridyl)-5-methyl-2-(1H-pyrazol-3-yl)-7,8-dihydro-5H-pyrido[4,3-d]pyrimidine] displayed an IC50 of 230 nM.
Molecule `COc1cc(F)nc(N2CCc3nc(-c4nccs4)ncc3C2C)c1` (stereo not shown) [Example 6, 2-[6-(6-Fluoro-4-methoxy-2-pyridyl)-5-methyl-7,8-dihydro-5H-pyrido[4,3-d]pyrimidin-2-yl]thiazole] yielded an IC50 of 118 nM.
In the case of `COc1cc(F)nc(N2CCc3nc(-n4nccn4)ncc3C2C)c1` (stereo not shown) [Example 3, 6-(6-Fluoro-4-methoxy-2-pyridyl)-5-methyl-2-(triazol-2-yl)-7,8-dihydro-5H-pyrido[4,3-d]pyrimidine], the IC50 amounted to 666 nM.
With `CC1c2cnc(-c3cscn3)nc2CCN1c1cc(N(C)C)cc(F)n1` (stereo not shown) [Example 11, 2-Fluoro-N,N-dimethyl-6-(5-methyl-2-thiazol-4-yl-7,8-dihydro-5H-pyrido[4,3-d]pyrimidin-6-yl)pyridin-4-amine] the figure was 26 nM; with `CC1c2cnc(-c3cscn3)nc2CCN1c1cc(F)nc(OCC2CCOC2)c1` (stereo not shown) [Example 37, 4-[6-[2-fluoro-6-(tetrahydrofuran-3-ylmethoxy)-4-pyridyl]-5-methyl-7,8-dihydro-5H-pyrido[4,3-d]pyrimidin-2-yl]thiazole], 70 nM; with `COc1cc(F)nc(N2CCc3nc(-c4ncco4)ncc3C2C)c1` (stereo not shown) [Example 4, 2-[6-(6-Fluoro-4-methoxy-2-pyridyl)-5-methyl-7,8-dihydro-5H-pyrido[4,3-d]pyrimidin-2-yl]oxazole], 316 nM.
With `CC1c2cnc(-c3cscn3)nc2CCN1c1cc(OCC2CCOC2)cc(F)n1` (stereo not shown) [Example 38, 4-[6-[6-fluoro-4-(tetrahydrofuran-3-ylmethoxy)-2-pyridyl]-5-methyl-7,8-dihydro-5H-pyrido[4,3-d]pyrimidin-2-yl]thiazole] the figure was 20 nM; with `CC1c2cnc(-c3cscn3)nc2CCN1c1cc(F)nc(N2CCCC2)c1` (stereo not shown) [Example 17, 4-[6-(2-fluoro-6-pyrrolidin-1-yl-4-pyridyl)-5-methyl-7,8-dihydro-5H-pyrido[4,3-d]pyrimidin-2-yl]thiazole], 17 nM; with `CC1c2cnc(-c3cscn3)nc2CCN1c1cc(OCC(F)F)cc(F)n1` (stereo not shown) [Example 35, 4-[6-[4-(2,2-difluoroethoxy)-6-fluoro-2-pyridyl]-5-methyl-7,8-dihydro-5H-pyrido[4,3-d]pyrimidin-2-yl]thiazole], 39 nM.
`COC1CCN(c2cc(N3CCc4nc(-c5cscn5)ncc4C3C)cc(F)n2)C1` (stereo not shown) [Example 23, 4-[6-[2-fluoro-6-(3-methoxypyrrolidin-1-yl)-4-pyridyl]-5-methyl-7,8-dihydro-5H-pyrido[4,3-d]pyrimidin-2-yl]thiazole] registered an IC50 of 35 nM.
Take `CC1c2cnc(-c3cscn3)nc2CCN1c1cc(OCCCN2CCCC2=O)cc(F)n1` (stereo not shown) [Example 41, 1-[3-[[2-fluoro-6-(5-methyl-2-thiazol-4-yl-7,8-dihydro-5H-pyrido[4,3-d]pyrimidin-6-yl)-4-pyridyl]oxy]propyl]pyrrolidin-2-one]: half-maximal inhibition (IC50) required 102 nM. This IC50 is about 2.9-fold higher than that of the molecule before.
With `CC1c2cnc(-c3cscn3)nc2CCN1c1cc(F)cc(OCC(F)F)n1` (stereo not shown) [Example 36, 4-[6-[6-(2,2-difluoroethoxy)-4-fluoro-2-pyridyl]-5-methyl-7,8-dihydro-5H-pyrido[4,3-d]pyrimidin-2-yl]thiazole], 112 nM corresponded to half-maximal inhibition (IC50).
In turn, `COC1CCN(c2cc(F)cc(N3CCc4nc(-c5cscn5)ncc4C3C)n2)C1` (stereo not shown) [Example 25, 4-[6-[4-fluoro-6-(3-methoxypyrrolidin-1-yl)-2-pyridyl]-5-methyl-7,8-dihydro-5H-pyrido[4,3-d]pyrimidin-2-yl]thiazole] displayed an IC50 of 60 nM. Against the preceding molecule, the IC50 is about 1.9-fold lower.
`CC1c2cnc(-c3cscn3)nc2CCN1c1cc(F)nc(OCCCN2CCCC2=O)c1` (stereo not shown) [Example 40, 1-[3-[[6-fluoro-4-(5-methyl-2-thiazol-4-yl-7,8-dihydro-5H-pyrido[4,3-d]pyrimidin-6-yl)-2-pyridyl]oxy]propyl]pyrrolidin-2-one]: inhibition was half-maximal at 222 nM (IC50).

Values taken from patent US10968218B2, “Tetrahydropyridopyrimidines for the treatment and prophylaxis of hepatitis B virus infection” (Hoffmann-La Roche Inc., priority 2016, dated 2021).
